# Assays:
# GALAP (Galium) [1] = experiment: Postemergence herbicidal evaluation; format: in vivo, Galium aparine; settings: postemergence
# Summary of the method: (§1)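 Two-week seedlings sprayed postemergence at 40 psi; formulation: 1:1 acetone/water, 0.5% TWEEN 20; application ≈0.0156–0.500 kg/ha. Greenhouse grow-out, then 0–9 visual scoring at 4–5 weeks.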
# [2] = system: CHEAL (Lambsquarters, Common); experiment: Postemergence herbicidal evaluation; format: in vivo, Chenopodium album; settings: postemergence
# Summary of the method: as §1
# GALAP (Galium) [3] = experiment: Preemergence herbicidal evaluation; format: in vivo, Galium aparine; settings: rate 0.0313 kg/ha; rated 4-5 weeks after treatment
# Summary of the method: (§2)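 Rating at 4–5 wk post-spray on a 0–9 visual scale vs control. Application: aqueous acetone, ~0.0156–0.500 kg/ha, to soil surface after seeding, preemergence.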
# CYPSE (Flatsedge) [4] = experiment: Preemergence weed control under flooded paddy conditions; format: in vivo, Cyperus serotinus; settings: rated 3-4 weeks after treatment
# Summary of the method: (§3)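 Seeds or propagules sown in silt loam kept flooded 1.5-3 cm; compounds in 50/50 acetone/water pipetted into flood water at about 0.0313 to 0.500 kg/ha. Greenhouse; visual 0-9 rating versus untreated control 3-4 weeks after treatment.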
# AMBEL (Ragweed, Common) = experiment: Postemergence herbicidal evaluation; format: in vivo, Ambrosia artemisifolia; settings: postemergence
# Summary of the method: as §1
# SETVI (Foxtail, Green) = experiment: Postemergence herbicidal evaluation; format: in vivo, Setaria viridis; settings: postemergence
# Summary of the method: as §1
# [5] = system: GLXMAW (Soybean, Williams); experiment: Postemergence herbicidal evaluation; format: in vivo, Glycine max, (L.) Merr. cv Williams; settings: postemergence
# Summary of the method: as §1
# CASOB (Sicklepod) [6] = experiment: Preemergence herbicidal evaluation; format: in vivo, Cassia obtusifolia; settings: rated 4-5 weeks after treatment
# Summary of the method: as §2
# ORYSAT (Rice, Tebonnet) = experiment: Postemergence herbicidal evaluation; format: in vivo, Oryza sativa, (L.) Tebonnet; settings: postemergence
# Summary of the method: as §1
# CASOB (Sicklepod) [7] = experiment: Postemergence herbicidal evaluation; format: in vivo, Cassia obtusifolia; settings: postemergence
# Summary of the method: as §1
# CYPIR (Rice Flatsedge) = experiment: Preemergence weed control under flooded paddy conditions; format: in vivo, Cyperus iria; settings: rated 3-4 weeks after treatment
# Summary of the method: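 Flooded-pot preemergence screen with silt loam and seeds in the upper 0.5 cm. Dose about 0.0313 to 0.500 kg/ha, delivered into flood water; visual 0-9 score after 3 to 4 weeks.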
# ZEAMX (Corn, Field) = experiment: Preemergence herbicidal evaluation; format: in vivo, Zea mays; settings: rated 4-5 weeks after treatment
# Summary of the method: as §2
# CYPSE (Flatsedge) [8] = experiment: Postemergence weed control under flooded paddy conditions; format: in vivo, Cyperus serotinus; settings: postemergence weeds, 3-4 weeks after treatment
# Summary of the method: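 Containers holding 3–5 cm weeds and rice at 1.5–2.5 leaves are flooded to 1.5–3 cm above soil. Compound in 50/50 v/v aqueous/acetone is then added directly to the water, about 0.0313–0.500 kg/ha. Plants are kept in the greenhouse and rated 0–9 visually at 3–4 weeks.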
# [9] = system: SAGPY (Arrowhead (Pygmaea)); experiment: Preemergence weed control under flooded paddy conditions; format: in vivo, Sagittaria pygmaea; settings: rated 3-4 weeks after treatment
# Summary of the method: as §3
# ECHCG (Barnyardgrass) = experiment: Postemergence herbicidal evaluation; format: in vivo, Echinochloa crus-galli; settings: postemergence
# Summary of the method: as §1
compound,measurement,setting,value
"O=C1CSC(=Nc2cc(N3C(=O)C4=C(CCCC4)C3=O)c(F)cc2Cl)N1c1ccccc1 [Compound 3, N-{4-chloro-2-fluoro-5-[(4-oxo-3-phenyl-2-thiazolidinylidene)amino]phenyl}-1-cyclohexene-1,2-dicarboximide]",GALAP herbicidal rating,GALAP (Galium) [1]; rate 0.0157 kg/ha,9.0
same,GALAP herbicidal rating,GALAP (Galium) [1]; rate 0.0313 kg/ha,2.0
same,GALAP herbicidal rating,GALAP (Galium) [1]; rate 0.0625 kg/ha,4.0
same,GALAP herbicidal rating,GALAP (Galium) [1]; rate 0.1250 kg/ha,4.0
same,GALAP herbicidal rating,GALAP (Galium) [1]; rate 0.2500 kg/ha,6.0
same,GALAP herbicidal rating,GALAP (Galium) [1]; rate 0.5000 kg/ha,9.0
same,CHEAL herbicidal rating,[2]; rate 0.0313 kg/ha,7.0
same,CHEAL herbicidal rating,[2]; rate 0.0625 kg/ha,6.0
same,CHEAL herbicidal rating,[2]; rate 0.1250 kg/ha,9.0
same,CHEAL herbicidal rating,[2]; rate 0.2500 kg/ha,9.0
same,CHEAL herbicidal rating,[2]; rate 0.5000 kg/ha,9.0
same,GALAP preemergence herbicidal rating,GALAP (Galium) [3],4.0
same,Herbicidal rating CYPSE,CYPSE (Flatsedge) [4]; 0.0625 kg/ha,0.0
same,Herbicidal rating CYPSE,CYPSE (Flatsedge) [4]; 0.1250 kg/ha,0.0
same,Herbicidal rating CYPSE,CYPSE (Flatsedge) [4]; 0.2500 kg/ha,0.0
same,Herbicidal rating CYPSE,CYPSE (Flatsedge) [4]; 0.5000 kg/ha,0.0
same,AMBEL herbicidal rating,"AMBEL (Ragweed, Common); rate 0.0313 kg/ha",2.0
same,AMBEL herbicidal rating,"AMBEL (Ragweed, Common); rate 0.0625 kg/ha",0.0
same,AMBEL herbicidal rating,"AMBEL (Ragweed, Common); rate 0.1250 kg/ha",6.0
same,AMBEL herbicidal rating,"AMBEL (Ragweed, Common); rate 0.2500 kg/ha",6.0
same,AMBEL herbicidal rating,"AMBEL (Ragweed, Common); rate 0.5000 kg/ha",9.0
same,SETVI herbicidal rating,"SETVI (Foxtail, Green); rate 0.0157 kg/ha",0.0
same,SETVI herbicidal rating,"SETVI (Foxtail, Green); rate 0.0313 kg/ha",0.0
same,SETVI herbicidal rating,"SETVI (Foxtail, Green); rate 0.0625 kg/ha",0.0
same,SETVI herbicidal rating,"SETVI (Foxtail, Green); rate 0.1250 kg/ha",0.0
same,SETVI herbicidal rating,"SETVI (Foxtail, Green); rate 0.2500 kg/ha",0.0
same,SETVI herbicidal rating,"SETVI (Foxtail, Green); rate 0.5000 kg/ha",0.0
same,GLXMAW herbicidal rating,[5]; rate 0.0157 kg/ha,2.5
same,GLXMAW herbicidal rating,[5]; rate 0.0313 kg/ha,3.5
same,GLXMAW herbicidal rating,[5]; rate 0.0625 kg/ha,3.0
same,GLXMAW herbicidal rating,[5]; rate 0.1250 kg/ha,4.0
same,GLXMAW herbicidal rating,[5]; rate 0.2500 kg/ha,4.0
same,GLXMAW herbicidal rating,[5]; rate 0.5000 kg/ha,4.5
same,CASOB preemergence herbicidal rating,CASOB (Sicklepod) [6]; rate 0.0313 kg/ha,0.0
same,CASOB preemergence herbicidal rating,CASOB (Sicklepod) [6]; rate 0.0625 kg/ha,0.0
same,CASOB preemergence herbicidal rating,CASOB (Sicklepod) [6]; rate 0.1250 kg/ha,0.0
same,CASOB preemergence herbicidal rating,CASOB (Sicklepod) [6]; rate 0.2500 kg/ha,0.0
same,CASOB preemergence herbicidal rating,CASOB (Sicklepod) [6]; rate 0.5000 kg/ha,2.0
same,ORYSAT herbicidal rating,"ORYSAT (Rice, Tebonnet); rate 0.0157 kg/ha",2.0
same,ORYSAT herbicidal rating,"ORYSAT (Rice, Tebonnet); rate 0.0313 kg/ha",2.5
same,ORYSAT herbicidal rating,"ORYSAT (Rice, Tebonnet); rate 0.0625 kg/ha",3.0
same,ORYSAT herbicidal rating,"ORYSAT (Rice, Tebonnet); rate 0.1250 kg/ha",3.0
same,ORYSAT herbicidal rating,"ORYSAT (Rice, Tebonnet); rate 0.2500 kg/ha",2.0
same,ORYSAT herbicidal rating,"ORYSAT (Rice, Tebonnet); rate 0.5000 kg/ha",3.5
same,CASOB herbicidal rating,CASOB (Sicklepod) [7]; rate 0.0157 kg/ha,0.0
same,CASOB herbicidal rating,CASOB (Sicklepod) [7]; rate 0.0313 kg/ha,0.0
same,CASOB herbicidal rating,CASOB (Sicklepod) [7]; rate 0.0625 kg/ha,0.0
same,CASOB herbicidal rating,CASOB (Sicklepod) [7]; rate 0.1250 kg/ha,0.0
same,CASOB herbicidal rating,CASOB (Sicklepod) [7]; rate 0.2500 kg/ha,6.0
same,CASOB herbicidal rating,CASOB (Sicklepod) [7]; rate 0.5000 kg/ha,4.0
same,Herbicidal rating CYPIR,CYPIR (Rice Flatsedge); 0.0625 kg/ha,0.0
same,Herbicidal rating CYPIR,CYPIR (Rice Flatsedge); 0.1250 kg/ha,0.0
same,Herbicidal rating CYPIR,CYPIR (Rice Flatsedge); 0.2500 kg/ha,0.0
same,Herbicidal rating CYPIR,CYPIR (Rice Flatsedge); 0.5000 kg/ha,0.0
same,ZEAMX preemergence herbicidal rating,"ZEAMX (Corn, Field); rate 0.0313 kg/ha",0.0
same,ZEAMX preemergence herbicidal rating,"ZEAMX (Corn, Field); rate 0.0625 kg/ha",0.0
same,ZEAMX preemergence herbicidal rating,"ZEAMX (Corn, Field); rate 0.1250 kg/ha",1.0
same,ZEAMX preemergence herbicidal rating,"ZEAMX (Corn, Field); rate 0.2500 kg/ha",2.0
same,ZEAMX preemergence herbicidal rating,"ZEAMX (Corn, Field); rate 0.5000 kg/ha",4.0
same,Herbicidal rating CYPSE,CYPSE (Flatsedge) [8]; rate 0.0625 kg/ha,0.0
same,Herbicidal rating CYPSE,CYPSE (Flatsedge) [8]; rate 0.1250 kg/ha,0.0
same,Herbicidal rating CYPSE,CYPSE (Flatsedge) [8]; rate 0.2500 kg/ha,0.0
same,Herbicidal rating CYPSE,CYPSE (Flatsedge) [8]; rate 0.5000 kg/ha,0.0
same,Herbicidal rating SAGPY,[9]; 0.0625 kg/ha,0.0
same,Herbicidal rating SAGPY,[9]; 0.1250 kg/ha,0.0
same,Herbicidal rating SAGPY,[9]; 0.2500 kg/ha,0.0
same,Herbicidal rating SAGPY,[9]; 0.5000 kg/ha,0.0
same,ECHCG herbicidal rating,ECHCG (Barnyardgrass); rate 0.0157 kg/ha,0.0
same,ECHCG herbicidal rating,ECHCG (Barnyardgrass); rate 0.0313 kg/ha,0.0
same,ECHCG herbicidal rating,ECHCG (Barnyardgrass); rate 0.0625 kg/ha,0.0
same,ECHCG herbicidal rating,ECHCG (Barnyardgrass); rate 0.1250 kg/ha,0.0
same,ECHCG herbicidal rating,ECHCG (Barnyardgrass); rate 0.2500 kg/ha,0.0
same,ECHCG herbicidal rating,ECHCG (Barnyardgrass); rate 0.5000 kg/ha,0.0

# From patent US20020137929A1, “1 - (3-heterocyclylphenyl) isothiourea, -isourea, -guanidine and -amidine herbicidal agents” (Intellectual Property Department, BASF Aktiengesellschaft, priority 1998, published 2002)
